Test results as given in patent US7342092B2, “Cancer antigen peptide formulations” (International Institute of Cancer Immunology, Inc., priority 2002, dated 2008).
Where no end group is shown, it is not given here.

Key:
[1] = test system: lung cancer patient two with metastasis at stage IV; test: Change in blood tumor marker levels in the lung cancer patient two, Example 2; assay type: in vivo, human
Experimental: The present example illustrates the case of the lung cancer patient two with metastasis at stage IV, who was administered with the WT1 peptide vaccine. In a similar manner to Example 1, a solution of wild type WT1 peptide (SEQ ID NO: 2) was mixed with Montanide ISA (registered trademark) 51 to provide a water-in-oil emulsion each just before the administration wherein the emulsion was injected intradermally at the upper arm of the patient totally six times, i.d. on day 0, 14, 28, 42, 56, and 71 wherein day 0 represents the day when the first administration was conducted.
The levels of tumor markers, CEA and SLX, were determined in a similar manner to Example 1, and the level of CYFRA (cytokeratin 19 fragments) was determined using Elecsys CYFRA produced by Roche.

[2] = test system: peripheral blood mononuclear cells (PBMC); test: ELISPOT of IFN-γ producing T cells in PBMC, Example 1; assay type: cell-based, human; settings: PBMC receiving the peptide in comparison with PBMC not receiving the peptide
[3] = test system: CTLs reactive to the wild type WT1 peptide-presenting HLA-A*2402 molecule; test: HLA tetramer method, CTLs reactive to wild type WT1 peptide-presenting HLA-A*2402, Example 3; assay type: in vivo, human; settings: two days after the administration; 1.1% three days before the administration
Experimental: Subsequently, the number of cytotoxic T cells (CTLs) reactive to the wild type WT1 peptide-presenting HLA-A*2402 molecule in the same patient was determined by an HLA tetramer method. The HLA-A*2402 tetramer was prepared using the wild type WT1 peptide according to the method described in Int. J. Cancer 100, 565-570 (2002). On a flow cytometer, FACS, the cells were stained with the two colors of PE-labeled HLA-A*2402 tetramer and FITC-labeled CD8 antibody, and the double-positive cells were assigned to CTLs recognizing the wild type WT1 peptide, i.e., CTLs reactive to WT1-positive cancer cells. CTL frequency three days before the administration of the peptide was 1.1%, whereas the frequency was increased to 8.8% two days after the administration.

[4] = test system: cancer patient two suffered from acute myeloblastic leukemia (AML-M1) transformed from Myelodysplastic Syndromes (MDS); test: Leukocyte number and bone marrow leukemic blasts in the leukemia patient, Example 3; assay type: in vivo, human
Experimental: The present example illustrates the case of the cancer patient two suffered from acute myeloblastic leukemia (AML-M1) transformed from Myelodysplastic Syndromes (MDS), who was administered with the WT1 peptide vaccine. The WT1 peptide used in this example was altered type WT1 peptide: Cys Tyr Thr Trp Asn Gln Met Asn Leu (SEQ ID NO: 3) synthesized by MPS Inc. (U.S.) with GMP grade. In a similar manner to Example 1, the peptide was mixed with MONTANIDE ISA (registered trademark) 51 to provide a water-in-oil emulsion, and the emulsion was injected intradermally at the upper arm of the patient. Leukemic blasts occupied 50% of the bone marrow two days before the administration, while the total number of leukocytes was 1500/μl on the day before the administration. Two days after the administration, the total number of leukocytes was decreased to 700/μl, and the leukemic blasts of the bone marrow reduced to 27%. When a hemopoietic factor, G-CSF, was administered to the patient in the light of the decreased total number of leukocytes, the total number recovered to 2150/μl, and the leukemic blasts of the bone marrow was 11% seven days after the administration.

Sequence	level of SLX in blood ([1]; on and after the 2nd administration, before administration 50 U/ml, upper limit of normal 38 U/ml, FIG. 2)	level of CEA in blood ([1]; on and after the 2nd administration, before administration higher than upper limit of normal 5 ng/ml, FIG. 2)	level of CYFRA in blood ([1]; on and after the 3rd administration, below the upper limit of normal level, FIG. 2) [ng/mL]	development of the tumor ([1]; water-in-oil emulsion, overall conclusion of Example 2)	T cells producing IFN-γ in response to specifically the peptide (ELISPOT) [2]	CTL frequency (HLA-A*2402 tetramer and CD8 double-positive cells) [3] [%]	leukemic blasts of the bone marrow ([4]; seven days after the administration, G-CSF also given) [%]	leukemic blasts of the bone marrow ([4]; two days after the administration, 50% two days before the administration) [%]	conditions of leukemia ([4]; water-in-oil emulsion, overall conclusion of Example 3)
CMTWNQMNL [wild type WT1 peptide]	decreased to reach the normal level	decreased	< 2	suppressed the development of the tumor	found to be more				
CYTWNQMNL [altered type WT1 peptide]						8.8	11	27	improved the conditions of leukemia with decreased ratio of the leukemic blasts in the bone marrow
